Reference: US5523312A, “Antipicornaviral agents” (priority 1994, dated 1996)
≈ marks a conversion by molar mass, not a printed value.

Tested on: not listed separately
Assay: automated TCID-50 assay, rhinovirus-induced CPE in HeLa cells, panel T
Type: cell-based
Conditions: Human rhinovirus sp., HRV2, 72 h, read-out: MIC50 (minimum concentration of the compound required to inhibit 50% of the tested serotypes)
Method: (§1) The MIC values were determined by an automated tissue culture infectious dose 50% (TCID-50) assay. HeLa cells in monoloyers in 96-well cluster plates were infected with a dilution of picornavirus which had been shown empirically to produce 80% to 100% cytopathic effect (CPE) in 3 days in the absence of drug. The compound to be tested was serially diluted through 10, 2-fold cycles and added to the infected cells. After a 3 day incubation at 33° C. and 2.5% carbon dioxide, the cells were fixed with a 5% solution of glutaraldehyde followed by staining with a 0.25% solution of crystal violet in water. The plates were then rinsed, dried, and the amount of stain remaining in the well (a measure of intact cells) was quantitated with an optical density reader. The MIC was determined to be the concentration of compound which protected 50% of the cells from picornavirus-induced CPE relative to an untreated picornavirus control.
(§2) In the above test procedures, representative compounds of formula I were tested against some the serotypes from either a panel of fifteen human rhinovirus (HRV) serotypes, (noted in the table as panel T) namely, HRV-2, -14, -1A, -1B, -6, -21, -22, -15, -25, -30, -50, -67, -89, -86 and -41 or against some of the serotypes from a panel of 10 human rhinovirus serotypes, namely HRV-3, -4, -5, -9, -16, -18, -38, -66, -75 and -67, (noted in the table as panel B) and the MIC value, expressed in micrograms per milliliter […], for each rhinopicornavirus serotype was determined for each picornavirus, example 1e is given as an example of the data. Then MIC50 values, which are the minimum concentrations of the compound required to inhibit 50% of the tested serotypes were determined.
(§3) The following Table gives the test results for representative compounds of the invention. The panel of picornaviruses used in the test appears before the MIC80 and MIC50 figure and the number of serotypes which the compound is tested against (n) is indicated after the MIC80 and MIC50 figure.

In order of falling MIC50:
1. Cc1cc(CCCCCc2cc3cc(C(=O)O)ccc3o2)on1 [Example 1j]  51.1 µg/mL (≈ 163 µM)
2. CCCCn1nnc(-c2cc(C)c3oc(CCCCc4cc(C)no4)cc3c2)n1 [Example 1l]  49.8 µg/mL (≈ 127 µM)
3. Cc1cc(CCCCc2cc3cc(-c4noc(C(F)(F)F)n4)cc(C)c3o2)on1 [Example 1i]  37.4 µg/mL (≈ 92.2 µM)
4. Cc1cc(CCc2cc3cc(-c4nnn(C)n4)cc(C)c3o2)on1 [Example 1n]  33.8 µg/mL (≈ 105 µM)
5. Cc1cc(CCCCc2cc3cc(-c4noc(C)n4)ccc3o2)on1 [Example 1f]  19.9 µg/mL (≈ 59 µM)
6. Cc1cc(CCCc2cc3cc(-c4noc(C)n4)cc(C)c3o2)on1 [Example 1g]  6.85 µg/mL (≈ 20.3 µM)
7. Cc1cc(CCCCCc2cc3cc(C4=NCCO4)ccc3o2)on1 [Example 1k]  0.585 µg/mL (≈ 1.73 µM)
8. Cc1cc(CCCc2cc3cc(-c4nnn(C)n4)cc(C)c3o2)on1 [Example 1m]  0.192 µg/mL (≈ 0.569 µM)
9. Cc1cc(CCCCc2cc3cc(-c4noc(C)n4)cc(Cl)c3o2)on1 [Example 1h]  0.124 µg/mL (≈ 0.333 µM)

Tested on: human rhinovirus (HRV) serotypes, panel B (HRV-3, -4, -5, -9, -16, -18, -38, -66, -75 and -67)
Assay: automated TCID-50 assay, rhinovirus-induced CPE in HeLa cells, panel B
Type: cell-based
Conditions: Human rhinovirus sp., HRV3, 72 h, read-out: MIC50 (minimum concentration of the compound required to inhibit 50% of the tested serotypes)
Method: as §1, §2, §3

In order of falling MIC50:
1. Cc1cc(CCCn2ccc3cc(-c4noc(C(F)F)n4)ccc32)on1 [Example 2g]  69.4 µg/mL (≈ 194 µM)
2. Cc1cc(CCCn2ccc3cc(-c4noc(C)n4)ccc32)on1 [Example 2c]  50.9 µg/mL (≈ 158 µM)
3. Cc1cc(CCCCCn2ccc3cc(-c4noc(C(F)F)n4)cc(C)c32)on1 [Example 2e]  3.13 µg/mL (≈ 7.82 µM)
4. Cc1cc(CCCn2ccc3cc(-c4noc(C(F)(F)F)n4)ccc32)on1 [Example 2i]  0.549 µg/mL (≈ 1.46 µM)
5. Cc1cc(CCCCn2ccc3cc(-c4noc(C(F)(F)F)n4)cc(C)c32)on1 [Example 2d]  0.5 µg/mL (≈ 1.24 µM)
6. Cc1cc(CCCCCn2ccc3cc(-c4noc(C(F)(F)F)n4)cc(C)c32)on1 [Example 2f]  0.307 µg/mL (≈ 0.734 µM)
7. Cc1cc(CCCn2ccc3cc(-c4noc(C)n4)cc(C)c32)on1 [Example 2h]  0.158 µg/mL (≈ 0.47 µM)
